Where two headings read alike, the source gives them in different places.
Experiments:
[1] = biological target: T1, CHO cells that overexpress TRPV1 (CHO-TRPV1) (Homo sapiens, UniProt Q8NER1); assay: Calcium imaging, CHO-TRPV1; format: cell-based; details: for TRPV1 activation (calcium influx), CHO-TRPV1: polygodial 80 μM, P10 4 μM, P3 50 μM
T1 construct: expressed in transfected cells; host or cells: CHO cells
Description: CHO cells that overexpress TRPV1 (CHO-TRPV1) were treated with polygodial (80 μM), P10 ([…]), or P3 (50 μM) and calcium influx was measured. Cells were also pre-treated with the TRPV1 antagonist capsazepine (CPZ; 10 μM) to determine if calcium influx via TRPV1 was inhibited. 3 μM ionomycin was used as a positive control. Fluo-4 Direct Calcium Assay Kit and Sweptfield confocal with Nikon Ti were used to visualize calcium influx and the images were analyzed using ImageJ software.

[2] = test system: human A549 non-small cell lung cancer (NSCLC); assay: MTT antiproliferative assay, A549; format: cell-based; details: for GI50: 72 h treatment, MTT assay, sextuplicates, read-out: GI50 in vitro values, A549
Description: Human mammary carcinoma MCF-7 (ATCC HTB22) cells were cultured in RPMI supplemented with 10% FBS. The U87 cells (ATCC HTB-14) were cultured in DMEM culture medium, while the A549 cells (DSMZ ACC107) were cultured in RPMI culture medium supplemented with 10% heat-inactivated FBS. The GBM Hs683 (ATCC HTB-138) cells were cultivated in DMEM supplemented with 10% FBS. The human uterine sarcoma MES-SA (ATCC CRL1966) and MES-SA/D×5 cells were cultured in RPMI-1640 medium supplemented with 10% FBS with MES SA/D×5 maintained in the presence of 500 nM Doxorubicin (Sigma). SKMEL-28 cells (ATCC HTB72) and U373 GBM cells (ECACC 08061901) were cultured in RPMI culture medium supplemented with 10% heat-inactivated FBS. Cell culture media were supplemented with 4 mM glutamine (Lonza code BE17-605E), 100 μg/mL gentamicin (Lonza code 17-5182), and penicillin-streptomycin (200 units/ml and 200 μg/ml) (Lonza code 17-602E). The MDA-MB-231 (ATCC HTB-26) epithelial mammary adenocarcinoma cells were cultured in Eagle's minimum essential medium (EMEM; Invitrogen) containing 5% fetal calf serum (FCS, Cambrex), 2 mM L-glutamine (Invitrogen), 0.06% HEPES (Invitrogen) and penicillin (50 IU/ml)/streptomycin (50 µg/ml; Invitrogen) at 37° C. in a humidified atmosphere of 5% CO2 in air. Transformed mouse NPCs were cultured in suspension under neurosphere conditions at 37° C. in a humidified atmosphere of […] and 5% CO2 in DMEM F12 (Invitrogen 11320-074) supplemented with 1×B27 supplement (Invitrogen 17504-044), 5% penicillin-streptomycin (Biochrom 10378-017), 10 ng/ml EGF (R&D systems 236-EG), 10 ng/ml FGF (PeproTech 100-18B).
Antiproliferative properties of the synthesized compounds were evaluated by the MTT assay. All compounds were dissolved in DMSO at a concentration of either 100 μM or 50 μM prior to cell treatment. The cells were trypsinized and seeded at various cell concentrations depending on the cell type. The cells were grown for 24 h to 72 h, treated with compounds at concentrations ranging from 0.001 to 100 μM and incubated for 48 or 72 h in 100 or 200 μL media depending on the cell line used. The number of experiments and replicates varied depending on the cell line. Cells treated with 0.1% DMSO were used as a negative control; 1 μM PAO was used as a positive control.
The synthesized C12-Wittig derivatives were evaluated for antiproliferative activities in a panel of cancer cell lines that included apoptosis-resistant human U373 glioblastoma (GBM) (Lefranc et al., 2013), human A549 non-small cell lung cancer (NSCLC) and human SKMEL-28 melanoma (Mathieu et al., 2009) as well as apoptosis-sensitive human Hs683 anaplastic oligodendroglioma (Lefranc et al., 2013) and human MCF-7 breast cancer (Frolova et al., 2013).

[3] = test system: cervical cancer cell line HeLa; assay: Cell viability (Cell Titer 96 Aqueous), HeLa; format: cell-based, human; details: 48 hours; potency order P10, polygodial, P3
Excerpt: Human cancer cell lines were obtained from the American Type Culture Collection (ATCC, Manassas, Va., USA), the European Collection of Cell Culture (ECACC, Salisbury, UK) and the Deutsche Sammlung von Mikroorganismen und Zellkulturen (DSMZ, Braunschweig, Germany). The OSCC cell lines, Cal27 and HSC3 are derived from human primary tongue tumor. Cal27 cells were obtained from the American Type Culture Collection (Rockville, Md.). HSC3 cells were provided by Dr. Brian Schmidt. HeLa cells (cervical cancer cell line) were obtained from ATCC. Cells were cultured in DMEM, containing 10% FBS and 1% penicillin-streptomycin media, at 37° C. in 5% CO2. All cells were authenticated by Genetic DNA Laboratories.
The cytotoxicity of polygodial, P10, P3, and P27 in Cal27, HSC3, and HeLa cells was examined in vitro using a colorimetric assay, Cell Titer 96® Aqueous Non-Radioactive Cell Proliferation Assay. […] GraphPad Prism4 was used to perform statistical analysis.

HSC3 cells = assay: Calcium imaging, HSC3; format: cell-based, human; details: for calcium influx, HSC3: polygodial 80 μM, P10 4 μM, P3 50 μM
[4] = test system: U373 human glioma cell line; assay: Quantitative videomicroscopy, U373; format: cell-based; details: at GI50 concentrations (Table 1)
Description: FIG. 8. In vitro videomicroscopic analysis of the anticancer effects of 1 and its C12-Wittig derivatives 5 and 13. The U373 human glioma cell line was treated with polygodial, 5 and 13 at their mean GI50 concentrations (Table 1) or left untreated. Videomicroscopy enabled taking pictures of the culture field every 4 minutes. The experiment was conducted once in triplicate. While the morphology of cells treated with 1 was fixed over time, 5 and 13 exerted cytostatic effects on U373 cells.
In an effort to gain insight into possible mechanisms associated with antiproliferative properties of 1 and the C12-Wittig derivatives, the morphological changes in cells treated with these compounds were studied with computer-assisted phase-contrast microscopy (Luchetti et al., 2012) (quantitative videomicroscopy).

HeLa cells = assay: Calcium imaging, HeLa; format: cell-based, human
HeLa-derived tumors = assay: Mouse xenograft model, HeLa; format: in vivo, athymic nude mice; details: for anti-tumor effect, HeLa-derived tumors: 40 μg/100 μl intra-tumor injection every other day for 18 days, polygodial significantly more efficacious than P3; for adverse effects, HeLa xenograft mice: intra-tumor injection every other day for 18 days
Description: Six-week old female athymic nude mice were used in laminar air-flow cabinet in pathogen-free conditions. They were acclimated for one week prior to the start of the study and kept at controlled temperature and humidity, with food and water. Mice were injected subcutaneously in the flank with 2×10^6 Cal27 cells or HeLa cells in 0.1 mL of sterile PBS. When the tumors reached 100 mm^3 (Cal27) and 150 mm^3 (HeLa), the mice were stratified into 4 groups, […], polygodial, P10, P3 and P27 at the concentrations noted in the figure legends.

T1 sequence (Q8NER1 whole entry): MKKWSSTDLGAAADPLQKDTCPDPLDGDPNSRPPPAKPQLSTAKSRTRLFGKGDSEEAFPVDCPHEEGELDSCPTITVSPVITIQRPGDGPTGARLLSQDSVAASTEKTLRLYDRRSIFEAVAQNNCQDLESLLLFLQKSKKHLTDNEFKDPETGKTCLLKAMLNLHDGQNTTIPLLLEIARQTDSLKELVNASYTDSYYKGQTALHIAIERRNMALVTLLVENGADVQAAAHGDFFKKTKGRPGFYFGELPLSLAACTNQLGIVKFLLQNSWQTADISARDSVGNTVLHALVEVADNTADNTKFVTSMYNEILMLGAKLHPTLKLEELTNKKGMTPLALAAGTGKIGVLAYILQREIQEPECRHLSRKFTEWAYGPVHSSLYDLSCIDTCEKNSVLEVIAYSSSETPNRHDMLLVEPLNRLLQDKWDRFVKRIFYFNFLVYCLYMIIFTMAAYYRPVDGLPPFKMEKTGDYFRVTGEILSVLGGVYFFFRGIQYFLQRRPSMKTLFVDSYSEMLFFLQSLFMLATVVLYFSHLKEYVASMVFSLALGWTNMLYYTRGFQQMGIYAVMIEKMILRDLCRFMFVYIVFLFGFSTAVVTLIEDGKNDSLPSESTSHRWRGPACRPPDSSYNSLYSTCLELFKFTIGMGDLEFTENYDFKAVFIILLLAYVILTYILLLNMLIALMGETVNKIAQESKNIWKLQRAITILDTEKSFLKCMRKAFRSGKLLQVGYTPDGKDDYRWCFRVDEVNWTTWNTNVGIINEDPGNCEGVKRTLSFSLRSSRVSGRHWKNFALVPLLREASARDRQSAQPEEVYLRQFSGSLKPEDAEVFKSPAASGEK

SMILES	reversal of calcium influx by capsazepine, CHO-TRPV1 ([1]; CPZ 10 μM pre-treatment)	TRPV1 activation (calcium influx), CHO-TRPV1 [1]	GI50 ([2]; Homo sapiens, A549)	cancer cell viability, HeLa [3]	reversal of calcium influx by capsazepine, HSC3 (HSC3 cells; CPZ 10 μM)	calcium influx, HSC3 (HSC3 cells)	morphological effect by videomicroscopy [4]	reversal of calcium influx by capsazepine, HeLa (HeLa cells; CPZ 10 μM)	anti-tumor effect, HeLa-derived tumors (HeLa-derived tumors)	adverse effects, HeLa xenograft mice (HeLa-derived tumors)	GI50 [2]	effect on proliferation/viability of all cells, A549 ([2]; apoptosis-resistant A549 NSCLC, concentrations up to 100 μM)	calcium influx, HeLa (HeLa cells; polygodial 80 μM, P10 4 μM, P3 50 μM)
CC1(C)CCC[C@]2(C)[C@@H](C=O)C(C=O)=CC[C@@H]12 [Compound 1, Polygodial]	reversible by CPZ pre-treatment	activates TRPV1	90 µM	reduced cancer cell viability in vitro	inhibited by CPZ	did induce calcium influx	strong fixative effects	CPZ did not fully reverse calcium influx	significant anti-tumor effects	marked inflammatory response	–	–	–
COC(=O)/C=C/C1=CC[C@H]2C(C)(C)CCC[C@]2(C)[C@H]1C=O [Compound 5]	–	do not	–	reduced cancer cell viability in vitro	–	did not induce calcium influx	inhibited cancer cell proliferation without inducing cell death	–	significant anti-tumor effects	No observable adverse effects	21 µM	growth inhibitory properties against most of the cells	did not induce calcium influx
